Values quoted from earlier work, collected in patent US12144796B2, “Formulations for treating cluster symptoms associated with autism spectrum disorder” (Ilera Therapeutics LLC, priority 2019, dated 2024).

Compound: CC12CCC(CC1)C(C)(C)O2 [Eucalyptol, 1,3,3-trimethyl-2-oxabicyclo[2.2.2]octane]
- solubility in water: insoluble in water
